The assay concerns passive cutaneous anaphylaxis (PCA). As to the kind of experiment: Passive Cutaneous Anaphylaxis (PCA). The class given is in vivo, Male Wistar rats. As to conditions: rat, i.v., carrier PBS with NaHCO3, time 0 mins before antigen challenge. The protocol:
Passive Cutaneous Anaphylaxis (PCA)
Serum containing heat labile homocytotropic antibody was raised in rats to crystallized ovalbumin XOA by the method of Mota (I. Mota, Immunology, 7,681 [1964] using Bordettela pertussis vaccine as adjuvant.
Passive cutaneous anaphylaxis (PCA) was carried out by a method based on that of Ovary and Bier, (A. Ovary and O. G. Bier, Proc. Soc. Exp. Biol. Med. 81, 584, [1952]) as modified by Goose and Blair. (Immunology 16, 749 [1969]).
Male Wistar rats of 250-300 g. were given 0.1 ml. of each of six twofold serial dilutions of pooled antiserum in 0.9% saline injected intradermally into separate sites on their shaved backs. Later (72 hrs.) the animals were challenged by intravenous injection of 0.3 ml. of a 1% solution of ovalbumin in an isotonic solution of saline buffered with 0.05 M, pH 7.2, Sorenson Buffer (PBS), mixed with 0.2 ml. of a 5% solution of Pontamine Sky Blue (6BX C.I. 24410, Raymond A. Lamb, London) in isotonic saline. The rats were killed after 20 min and the diameter of the blue wheals at the antibody injection sites was measured on the outer surface of the skin. The starting dilution of the serum was adjusted so that there was no response, after challenge, at the injection site of the highest dilution and a maximum response at the lowest dilutions. Typically six twofold serial dilutions of the serum from 1/4 to 1/128 were used.
Compounds were tested for their ability to reduce the diameter of the wheals at those intradermal sites which in control animals gave less than maximum response. Each dose of the compound was administered to six rats at a measured time prior to intravenous challenge with ovalbumin. Control groups of six rats were given the same volume (0.2 ml/100 g) of carrier fluid at the same time prior to the challenge.
The results were calculated as follows. % inhibition of PCA=100 (1-a/b) where a=the sum of the diameters of the wheals produced in the test animal at the sites of antibody dilutions as used in control groups and b=the mean sum of the diameters of the wheals produced in the control group of animals at those antibody sites where at least five out of six of the animals gave less than maximum response. A typical variation in the control group of animals was SEM± 6%.

`O=c1c2cc(Cl)ccc2[nH]c2nn[nH]c12` [Example 3, 7-Chloro-4,9-dihydro-9-oxo-1H-triazolo[4,5-b] quinoline]: the “% Inhib PCA” value reads like this: (5 mg/kg) 36%; (20 mg/kg) 70%.
Turning to `O=c1c2ccccc2[nH]c2nn[nH]c12` [Example 1, 4,9-Dihydro-9-oxo-1H-triazolo[4,5-b] quinoline], the “% Inhib PCA” value (2 mg/kg) was 14%, the “% Inhib PCA” value (4 mg/kg) is given as 22% and the “% Inhib PCA” value (10 mg/kg) stood at 79%.
`Cc1ccc2[nH]c3nn[nH]c3c(=O)c2c1` [Example 2, 4,9-dihydro-7-methyl-9-oxo-1H-triazolo[4,5-b] quinoline]: the “% Inhib PCA” value runs as follows: (5 mg/kg) 16%; (10 mg/kg) 65%.

These data come from patent US4223032A, “Triazolo [4,5-b] quinolines and prophylaxis of allergic diseases with them” (Beecham Group Limited, priority 1977, dated 1980).
